COc1ccccc1OCCNCC(O)COc1cccc2[nH]c3ccccc3c12 (stereo not drawn)
solubility (mole fraction)
Conditions | 278.15 K | 283.15 K | 288.15 K | 293.15 K | 298.15 K | 303.15 K | 308.15 K | 313.15 K
in THF | 0.00043 | 0.00061 | 0.00085 | 0.00118 | 0.00167 | 0.00227 | 0.00302 | 0.004
in acetone | 0.00064 | 0.00088 | 0.00117 | 0.00154 | 0.0021 | 0.00268 | 0.00354 | 0.0046
in ethanol | 0.00062 | 0.00085 | 0.00112 | 0.00143 | 0.00185 | 0.00246 | 0.00306 | 0.00389
in ethyl acetate | 0.00063 | 0.00086 | 0.00146 | 0.00187 | 0.0024 | 0.00294 | 0.00371 | 0.00424
in methanol | 0.00063 | 0.00087 | 0.00114 | 0.0015 | 0.00201 | 0.00256 | 0.00329 | 0.00419
in water | 0.0196 | 0.0232 | 0.0278 | 0.033 | 0.0398 | 0.0468 | 0.0552 | 0.0641
